Test results reported in article PMC3722118, “Hellebrin and its aglycone form hellebrigenin display similar in vitro growth inhibitory effects in cancer cells and binding profiles to the alpha subunits of the Na^+/K^+-ATPase” (Molecular Cancer, 2013).
Like-named read-outs stand apart in the source and are kept apart here.

Assays:
[1] = tested on: A549 NSCLC cells; experiment: MTT colorimetric in vitro growth inhibition assay; type: cell-based, human; conditions: read-out: IC50 (nM) A549
Source text: (§1) The histological types and origins of the eight human cancer cell lines that were used for the MTT colorimetric assay are detailed in the legend of Table 1. Two mouse cancer cell lines were also used, the CT26.WT colon cancer cell line (ATCC code CRL-2638) and the B16F10 melanoma cell line (ATCC code CRL-6475). Both cell lines were obtained from the American Type Culture Collection (ATCC, Manassas, VA). A control cell line (human NHDF fibroblasts) was obtained from PromoCell (code c-12300; Heidelberg, Germany). The cell lines detailed in Figure 2A are a generous gift from the National Cancer Institute (NCI, Bethesda, USA) to Steven Karlish’s lab.
(§2) The cancer cells were cultured in RPMI (Lonza, Verviers, Belgium) medium supplemented with 10% heat-inactivated fetal calf serum (Lonza). All culture media were supplemented with 4 mM glutamine, 100 μg/mL gentamicin, 200 U/mL penicillin and 200 μg/mL streptomycin (Lonza). The NHDF fibroblasts were cultured in Lonza medium cc3132 KT FGM-2 BulletKit.
(§3) The overall growth level of the human cancer cell lines was determined using a colorimetric MTT (3-(4,5-dimethylthiazol-2yl)-2,5-diphenyltetrazolium bromide, Sigma, Belgium) assay as detailed previously. Briefly, this test measures the number of metabolically active (thus living) cells that are able to transform the yellow MTT into the blue formazan dye via a mitochondrial reduction involving succinate dehydrogenase. The amount of formazan obtained at the end of the experiment (measured by spectrophotometry) is directly proportional to the number of living cells. The determination of the optical density in the control compared to the treated cells therefore enables quantitative measurements of the effects of compounds on the growth of normal as well as cancer cells in vitro.
(§4) Each experimental condition was performed in six replicates.

[2] = tested on: HT-29 colon cancer cells; experiment: MTT colorimetric in vitro growth inhibition assay; type: cell-based, human; conditions: read-out: IC50 (nM) HT-29
Source text: as §1, §2, §3, §4

[3] = tested on: Hs683 glioma cells; experiment: MTT colorimetric in vitro growth inhibition assay; type: cell-based, human; conditions: read-out: IC50 (nM) Hs683
Source text: as §1, §2, §3, §4

[4] = tested on: MCF-7 breast cancer cells; experiment: MTT colorimetric in vitro growth inhibition assay; type: cell-based, human; conditions: read-out: IC50 (nM) MCF-7
Source text: as §1, §2, §3, §4

[5] = tested on: PC-3 prostate cancer cells; experiment: MTT colorimetric in vitro growth inhibition assay; type: cell-based, human; conditions: read-out: IC50 (nM) PC-3
Source text: as §1, §2, §3, §4

[6] = tested on: SKMEL-28 melanoma cells; experiment: MTT colorimetric in vitro growth inhibition assay; type: cell-based, human; conditions: read-out: IC50 (nM) SKMEL-28
Source text: as §1, §2, §3, §4

[7] = tested on: T98G glioma cells; experiment: MTT colorimetric in vitro growth inhibition assay; type: cell-based, human; conditions: read-out: IC50 (nM) T98G
Source text: as §1, §2, §3, §4

[8] = tested on: U373 glioma cells; experiment: MTT colorimetric in vitro growth inhibition assay; type: cell-based, human; conditions: read-out: IC50 (nM) U373
Source text: as §1, §2, §3, §4

[9] = tested on: human cancer cells (A549, U373, Hs683, T98G, MCF-7, SKMEL-28, PC-3, HT-29); experiment: MTT growth inhibition, mean over the eight human cancer cell lines; type: cell-based; conditions: read-out: IC50 (nM) Mean ± SEM
Source text: as §1, §2, §3, §4

[10] = tested on: HT-29 colon cancer cells; experiment: O2 consumption rate (MitoXpress assay); type: cell-based, human; conditions: compounds at their IC50 (MTT), 24 h
Protocol: For enzymatic determination of lactate production, confluent tumor cells were incubated with 10 mM glucose for 24 hours. Culture medium was then filtered through centrifugation columns with a 10 KDa cutoff, and L-lactate concentrations were determined on an ISCUSflex analyzer (CMA Microdialysis AB, Solna, Sweden). O2 consumption was determined using the MitoXpress assay according to the manufacturer’s instructions (LuxCell Biosciences, Cork, Ireland). Briefly, after adding the oxygen probe to tumor cells cultured for 24 hours in 96-well microplates with or without the tested compounds, the wells were sealed with mineral oil, and respiration was evaluated using time-resolved fluorescent plate readers. Under these conditions, O2 depletion was translated into an increase in probe phosphorescence signal, and the slope of this signal was used to derive the O2 consumption rate.
Figure 6 Metabolic profiling of human HT29 colon cancer cells treated with cardiotonic steroids. A: Extracellular lactate concentrations and B: O2 consumption rates in HT29 cancer cells treated with the indicated compounds at their IC50in vitro growth inhibitory concentrations (see Table 1). The data (mean ± SEM from triplicates) are expressed in mM lactate accumulated in the extracellular medium after 24 hours and arbitrary units derived from time-resolved fluorescent signal.min^-1.

[11] = tested on: NHDF fibroblasts; experiment: MTT growth inhibition in non-cancerous control cell line; type: cell-based; conditions: NHDF, normal human fibroblasts, read-out: in vitro growth inhibitory effects (IC50) in NHDF fibroblasts
Source text: as §1, §2, §3, §4

[12] = biological target: T1, human α1β1 NaK complex (Homo sapiens, UniProt P05023); experiment: 3H-ouabain competitive displacement on P. pastoris membranes; type: binding; conditions: 3H-ouabain displacement, three independent experiments; read-out: Affinity (nM) α-1 (KD ± SEM)
T1 construct: made in house; host or cells: Pichia pastoris strain SMD1165 (membranes)
Protocol: (§5) K0.5 was calculated using a one site inhibition model: B/BCG=0 = K0.5/([CG] + K0.5). […] Binding of each cardiac glycoside was estimated in 3 separate experiments.
(§6) Average KD or Ki values ± SEM for each isoform were calculated. Statistical significance was calculated by the unpaired Students t-test. P values <0.05 were considered significant.

[13] = biological target: T2, human α2β1 NaK complex (Homo sapiens, UniProt P50993); experiment: as above; type: binding
T2 construct: made in house; host or cells: Pichia pastoris strain SMD1165 (membranes)
Protocol: as §5, §6

[14] = biological target: T3, human α3β1 NaK complex (Homo sapiens, UniProt P13637); experiment: as above; type: binding
T3 construct: made in house; host or cells: Pichia pastoris strain SMD1165 (membranes)
Protocol: as §5, §6

[15] = biological target: T4, purified human α1β1 Na+/K+-ATPase (Homo sapiens, UniProt P05023); experiment: Inhibition of NaK activity of purified detergent-soluble complex (Pi release); type: biochemical; conditions: 37°C, 1 h, 1 mM ATP; read-out: Ki for inhibition of NaK activity of purified human α1β1
T4 construct: made in house; host or cells: Pichia pastoris strain SMD1165; detergent-soluble complex purified
Protocol: The inhibition of NaK activity of the purified detergent-soluble α1β1, α2β1, and α3β1 complexes by cardiotonic steroids and an analysis of the inhibition data (Ki values) were also performed as previously described. The inhibitors were added to the recombinant enzyme (0.08–0.2 μg of protein) in 400 μl of reaction medium containing 130 mM NaCl, 5 mM KCl, 3 mM MgCl2, 25 mM histidine, pH 7.4, 1 mM EGTA, 0.01 mg/ml SOPS, 0.001 mg/ml cholesterol, and 0.005 mg/ml C12 E8 in 48-well plates. The reaction (37°C for 1 h) was started by the addition of 1mM ATP. Pi release was measured with a malachite green dye to detect the phosphor-molybdate (Pi Color Lock, Innova Biosciences). The percent inhibition V /V0 was calculated for each cardiac glycoside concentration, and Ki values were obtained by fitting the data to the function V /V0 = Ki /([CG] + Ki ) (using Kaleidagraph). V0 and V represent the control rate and rate of NaK-ATPase activity at particular concentrations of cardiac glycosides, [CG], respectively.
as §6

[16] = Homo sapiens, A549, 72 h, three days of culture, * three independent experiments, ** one experiment, six replicates
[17] = Homo sapiens, HT-29, 72 h, three days of culture, * three independent experiments, ** one experiment, six replicates
[18] = Homo sapiens, Hs 683, 72 h, three days of culture, * three independent experiments, ** one experiment, six replicates
[19] = Homo sapiens, MCF7, 72 h, three days of culture, * three independent experiments, ** one experiment, six replicates
[20] = Homo sapiens, 72 h, three days of culture, * three independent experiments, ** one experiment, six replicates
[21] = Homo sapiens, SK-MEL-28, 72 h, three days of culture, * three independent experiments, ** one experiment, six replicates
[22] = Homo sapiens, T98G, 72 h, three days of culture, * three independent experiments, ** one experiment, six replicates
[23] = Homo sapiens, U373 MG, 72 h, three days of culture, * three independent experiments, ** one experiment, six replicates
[24] = 72 h, mean over eight human cancer cell lines, three days of culture
[25] = three days of culture, * three independent experiments, ** one experiment, six replicates

Structure (SMILES)	IC50 ([1]; Homo sapiens, A549, 72 h)	IC50 ([2]; Homo sapiens, HT-29, 72 h)	IC50 ([3]; Homo sapiens, Hs 683, 72 h)	IC50 ([4]; Homo sapiens, MCF7, 72 h)	IC50 ([5]; Homo sapiens, 72 h)	IC50 ([6]; Homo sapiens, SK-MEL-28, 72 h)	IC50 ([7]; Homo sapiens, T98G, 72 h)	IC50 ([8]; Homo sapiens, U373 MG, 72 h)	IC50 ([9]; Homo sapiens, 72 h)	IC50 [1, 16]	IC50 [2, 17]	IC50 [3, 18]	IC50 [4, 19]	IC50 [5, 20]	IC50 [6, 21]	IC50 [7, 22]	IC50 [8, 23]	IC50 [9, 24]	further results
C[C@]12CC[C@H](O)C[C@H]1CC[C@@H]1[C@@H]2CC[C@]2(C)[C@@H](C3=CC(=O)OC3)CC[C@]12O [Digitoxigenin]	92 nM	230 nM	79 nM	2130 nM	298 nM	2500 nM	166 nM	369 nM	733 ± 349 nM										
C[C@H]1O[C@@H](O[C@H]2[C@@H](O)C[C@H](O[C@H]3[C@@H](O)C[C@H](O[C@H]4CC[C@@]5(C)[C@H](CC[C@@H]6[C@@H]5CC[C@]5(C)[C@@H](C7=CC(=O)OC7)CC[C@]65O)C4)O[C@@H]3C)O[C@@H]2C)C[C@H](O)[C@@H]1O [Digitoxin, digitoxin]										11 nM	198 nM	15 nM	187 nM	37 nM	59 nM	32 nM	61 nM	75 ± 26 nM	
C[C@]12CC[C@H](O)C[C@H]1CC[C@@H]1[C@@H]2C[C@@H](O)[C@]2(C)[C@@H](C3=CC(=O)OC3)CC[C@]12O [Digoxigenin, digoxigenin]										395 ± 34 nM	4460 nM	794 ± 22 nM	5320 nM	3880 nM	4000 nM	1170 nM	3190 nM	2900 nM	
C[C@H]1O[C@@H](O[C@H]2[C@@H](O)C[C@H](O[C@H]3[C@@H](O)C[C@H](O[C@H]4CC[C@@]5(C)[C@H](CC[C@@H]6[C@@H]5C[C@@H](O)[C@]5(C)[C@@H](C7=CC(=O)OC7)CC[C@]65O)C4)O[C@@H]3C)O[C@@H]2C)C[C@H](O)[C@@H]1O [Digoxin, digoxin]										60 ± 7 nM	208 ± 20 nM	51 ± 6 nM	363 ± 35 nM	215 ± 71 nM	220 ± 26 nM	274 ± 17 nM	227 ± 42 nM	202 ± 37 nM	O2 consumption rate (cell respiration) [10]: significantly reduced
C[C@]12CC[C@H](O)C[C@H]1CC[C@@H]1[C@@H]2[C@H](O)C[C@]2(C)[C@@H](c3ccc(=O)oc3)CC[C@]12O [Gamabufotalin, gamabufotalin]	7 ± 1 nM	37 ± 3 nM	14 ± 3 nM	40 ± 7 nM	22 ± 4 nM	22 ± 1 nM	31 ± 8 nM	34 ± 1 nM	26 ± 4 nM										IC50 [11]: > 10000 nM; Kd [12]: 243 ± 48 nM; Kd ([13]; 3H-ouabain displacement, three independent experiments, read-out: Affinity (nM) α-2 (KD ± SEM)): 247 ± 30 nM; Selectivity α-1 / α-2 ([13]; ratio of KD α-1 to KD α-2): 1.0; Kd ([14]; 3H-ouabain displacement, three independent experiments, read-out: Affinity (nM) α-3 (KD ± SEM)): 236 ± 14 nM; Selectivity α-1 / α-3 ([14]; ratio of KD α-1 to KD α-3): 1.0
C[C@]12C[C@@H](O)[C@H]3[C@@H](CC[C@]4(O)C[C@@H](O)C[C@@H](O)[C@]34CO)[C@@]1(O)CC[C@@H]2C1=CC(=O)OC1 [Ouabagenin, ouabagenin]																			IC50 [1, 25]: 866 ± 25 nM; IC50 [2, 25]: 3480 nM; IC50 [3, 25]: 1900 nM; IC50 [4, 25]: 4010 nM; IC50 [5, 25]: 2710 nM; IC50 [6, 25]: 2560 nM; IC50 [7, 25]: 3600 nM; IC50 [8, 25]: 5280 nM; IC50 ([9]; mean over eight human cancer cell lines, three days of culture): 3050 nM; Ki [15]: 721 ± 70 nM
